Data on seven molecules can be found in US11618761B2, “Phosphonium ion channel blockers and methods for use” (Nocion Therapeutics, Inc., priority 2019, dated 2023).

Structures can show the parent of a compound that is named as a salt. Where only a bound is given, the exact number is not on record here.

In data set [1] the target is T1, NaV1.7 (Homo sapiens, UniProt Q15858).
T1 construct: expressed in transfected cells; tetracycline-inducible, kept under hygromycin and blasticidin selection
Briefly: Whole cell patch clamp, internal block of NaV1.7 current (compound in internal solution). The format is cell-based. As to conditions: compound applied internally, 5 Hz stimulation, read-out: Nav1.7 Intracellular Inhibition; for inhibition at 10 µM: % inhibition at 10 μM test concentration; for inhibition at 3 µM: % inhibition at 3 μM test concentration. The method, then:
(§1) NaV1.7 was expressed upon induction with tetracycline. Cells were cultured in DMEM containing 10% dialyzed Fetal Bovine Serum (VWR, Radnor, Pa.), 1% Glutamax (VWR, Radnor, Pa.), 1% Penicillin-Streptomycin (VWR, Radnor, Pa.), 100 mg/L Hygromycin (Thermo Fisher Scientific, Waltham, Mass.) and 5 mg/L Blasticidin (Alfa Aesar, Haverhill, Mass.). Cells were grown and maintained at 37° C. in a humidified environment containing 10% CO2 in air. Cells were detached from the culture flask for passage and harvested using 0.05% Trypsin-EDTA (Thermo Fisher Scientific, Waltham, Mass.). To induce NaV1.7, cells were induced with tetracycline (0.1-1 μg/mL, IBI Scientific, Peosta, Iowa) the day before recording and plated onto 24-well plates. Cells were washed with DPBS (VWR, Radnor, Pa.), trypsinized and then triturated five times in 10 mL of growth media to break apart cell aggregates. For one 24-well plate, 2 mL of cell suspension was mixed with 23 mL of fresh growth media and 0.1-1 μg/mL tetracycline added. 1 ml of mixed media with cells was then added to each well of a 24-well plate, with a 12 mm coverslip already placed in the bottom of the well. Cells were then incubated in 37° C. and 10% CO2 overnight.
The intracellular solution contained the following (in mM) CsCl 135, NaCl 10, EGTA 10, HEPES 10, MgCl2 2, adjusted to pH 7.2 with CsOH. The external solution was a normal Ringer solution containing (in mM) NaCl 155, HEPES 10, glucose 10, KCl 3.5, CaCl2) 1.5, MgCl2 1 adjusted to pH 7.4 with NaOH. CsCl was from Alfa Aesar, Haverhill, Mass. All other chemicals were from Sigma-Aldrich, St. Louis, Mo. In order to test the degree of internal block by test compounds the compounds were dissolved in internal solution at the indicated test concentration. […] In order to test the degree of external block by test compounds the compounds were dissolved in external solution at the indicated test concentration.
18-24 hours after cells were induced with tetracycline, coverslips were placed into a chamber filled with Normal Ringer solution at room temperature and the chamber was placed on a microscope. Pipettes were pulled from borosilicate glass on a P97 puller (Sutter Instrument, Novato, Calif.) and were polished with a MF-830 Microforge (Narishige International USA, Inc, Amityville, N.Y.) to have a resistance of 1.5-2.5 MΩ when filled with CsCl internal solution at room temperature. Healthy cells (those that are round and translucent with no visible blemishes) were chosen for seal formation. A seal was formed between the pipette and the cell, and a brief pulse of suction was used to “break in” and establish the whole-cell configuration. The membrane potential was held at −100 mV before the voltage protocol begins. Only cells with series resistance between 1.5-5 MΩ were retained for analysis. The voltage protocol was as follows: Cells were held at −100 mV for 12 ms followed by a hyperpolarizing step to −105 mV for 12 ms to monitor the leak. Cells were then stepped back to −100 mV for 40 ms. Cells were then depolarized to −20 mV for 10 ms and then returned to −100 mV for 26 ms (the FIGURE).
Once the recording was started, the voltage protocol was run at 30 second intervals for 5 minutes to get a stable baseline. This was followed by four 30-second periods of 5 Hz stimulation of the same voltage protocol separated by 1 minute of rest which was then followed by 0.33 Hz stimulation after the last train. Currents were recorded using PatchMaster software with Heka EPC10 (HEKA Electronics, Lambrecht, Germany). Only cells with inward current amplitudes at −20 mV between 400 pA and 4 nA were accepted. In addition, cells having leak currents greater than 10% of their current amplitudes were discarded.
(§2) The data was plotted using the Patchmaster software (HEKA Electronics, Lambrecht, Germany) and was analyzed by plotting the minimum current during the voltage step to −20 mV (peak inward current) as a function of time. […]

Data set [2] can be described thus: PAMPA membrane permeability assay. Conditions: pH 7.4 buffer, GIT lipid, 4 hours incubation, 50 uM. It is filed as in vitro ADME. As for the experimental part: The PAMPA assay (pION, Inc., Woburn Mass.) was used to determine the ability of compounds of the invention to cross an artificial lipid membrane by passive diffusion. Test compounds were dissolved in DMSO (10 mM) and diluted 200-fold in buffer (pION Inc., pH 7.4) to provide 50 uM stock solutions. Buffer (150 μL) was added to a UV blank plate and stock solutions (150 μL) were transferred to a UV reference plate. The blank and reference spectrum were read using a spectrophotometer. Stock solutions (200 μL) were added to the donor plate of the PAMPA sandwich plate and an accept plate painted with GIT lipid (pION Inc, 5 μL) was placed on top. Buffer (200 μL) was added to the acceptor plate and the PAMPA sandwich plate was incubated for 4 hours. Aliquots (150 μL) from the acceptor plate were added to a UV plate and read as acceptor spectrum. Aliquots (150 μL) of the donor solutions were added to a UV analysis plate and read as donor spectrum. The permeability coefficient of test compounds was calculated using PAMPA Explorer™ software (version 3.5.0.4) based on the AUC of the reference plate, the donor plate, and the acceptor plate.
On the technique in general: In PAMPA a lipid-coated filter parts donor from acceptor wells.

The target of data set [3] is T1, NaV1.7. In words: Whole cell patch clamp, external block of NaV1.7 current (compound in external solution). It is filed as cell-based. As to conditions: % inhibition at 10 μM test concentration, compound applied externally for 5 minutes; read-out: Nav1.7 Extracellular Inhibition. As for the experimental part: as §1, with “For one 24-well plate, 2 mL of cell suspension was mixed with 23 mL of fresh growth media and 0.1-1 μg/mL tetracycline added. 1 ml of mixed media with cells was then added to each well of a 24-well plate, with a 12 mm coverslip already placed in the bottom of the well. Cells were then incubated in 37° C. and 10% CO2 overnight.” left out
Once the recording was started, the voltage protocol was run at 30 second intervals for 5 minutes to get a stable baseline. […] Currents were recorded using PatchMaster software with Heka EPC10 (HEKA Electronics, Lambrecht, Germany). […]
as §2

T1 sequence (Q15858 whole entry): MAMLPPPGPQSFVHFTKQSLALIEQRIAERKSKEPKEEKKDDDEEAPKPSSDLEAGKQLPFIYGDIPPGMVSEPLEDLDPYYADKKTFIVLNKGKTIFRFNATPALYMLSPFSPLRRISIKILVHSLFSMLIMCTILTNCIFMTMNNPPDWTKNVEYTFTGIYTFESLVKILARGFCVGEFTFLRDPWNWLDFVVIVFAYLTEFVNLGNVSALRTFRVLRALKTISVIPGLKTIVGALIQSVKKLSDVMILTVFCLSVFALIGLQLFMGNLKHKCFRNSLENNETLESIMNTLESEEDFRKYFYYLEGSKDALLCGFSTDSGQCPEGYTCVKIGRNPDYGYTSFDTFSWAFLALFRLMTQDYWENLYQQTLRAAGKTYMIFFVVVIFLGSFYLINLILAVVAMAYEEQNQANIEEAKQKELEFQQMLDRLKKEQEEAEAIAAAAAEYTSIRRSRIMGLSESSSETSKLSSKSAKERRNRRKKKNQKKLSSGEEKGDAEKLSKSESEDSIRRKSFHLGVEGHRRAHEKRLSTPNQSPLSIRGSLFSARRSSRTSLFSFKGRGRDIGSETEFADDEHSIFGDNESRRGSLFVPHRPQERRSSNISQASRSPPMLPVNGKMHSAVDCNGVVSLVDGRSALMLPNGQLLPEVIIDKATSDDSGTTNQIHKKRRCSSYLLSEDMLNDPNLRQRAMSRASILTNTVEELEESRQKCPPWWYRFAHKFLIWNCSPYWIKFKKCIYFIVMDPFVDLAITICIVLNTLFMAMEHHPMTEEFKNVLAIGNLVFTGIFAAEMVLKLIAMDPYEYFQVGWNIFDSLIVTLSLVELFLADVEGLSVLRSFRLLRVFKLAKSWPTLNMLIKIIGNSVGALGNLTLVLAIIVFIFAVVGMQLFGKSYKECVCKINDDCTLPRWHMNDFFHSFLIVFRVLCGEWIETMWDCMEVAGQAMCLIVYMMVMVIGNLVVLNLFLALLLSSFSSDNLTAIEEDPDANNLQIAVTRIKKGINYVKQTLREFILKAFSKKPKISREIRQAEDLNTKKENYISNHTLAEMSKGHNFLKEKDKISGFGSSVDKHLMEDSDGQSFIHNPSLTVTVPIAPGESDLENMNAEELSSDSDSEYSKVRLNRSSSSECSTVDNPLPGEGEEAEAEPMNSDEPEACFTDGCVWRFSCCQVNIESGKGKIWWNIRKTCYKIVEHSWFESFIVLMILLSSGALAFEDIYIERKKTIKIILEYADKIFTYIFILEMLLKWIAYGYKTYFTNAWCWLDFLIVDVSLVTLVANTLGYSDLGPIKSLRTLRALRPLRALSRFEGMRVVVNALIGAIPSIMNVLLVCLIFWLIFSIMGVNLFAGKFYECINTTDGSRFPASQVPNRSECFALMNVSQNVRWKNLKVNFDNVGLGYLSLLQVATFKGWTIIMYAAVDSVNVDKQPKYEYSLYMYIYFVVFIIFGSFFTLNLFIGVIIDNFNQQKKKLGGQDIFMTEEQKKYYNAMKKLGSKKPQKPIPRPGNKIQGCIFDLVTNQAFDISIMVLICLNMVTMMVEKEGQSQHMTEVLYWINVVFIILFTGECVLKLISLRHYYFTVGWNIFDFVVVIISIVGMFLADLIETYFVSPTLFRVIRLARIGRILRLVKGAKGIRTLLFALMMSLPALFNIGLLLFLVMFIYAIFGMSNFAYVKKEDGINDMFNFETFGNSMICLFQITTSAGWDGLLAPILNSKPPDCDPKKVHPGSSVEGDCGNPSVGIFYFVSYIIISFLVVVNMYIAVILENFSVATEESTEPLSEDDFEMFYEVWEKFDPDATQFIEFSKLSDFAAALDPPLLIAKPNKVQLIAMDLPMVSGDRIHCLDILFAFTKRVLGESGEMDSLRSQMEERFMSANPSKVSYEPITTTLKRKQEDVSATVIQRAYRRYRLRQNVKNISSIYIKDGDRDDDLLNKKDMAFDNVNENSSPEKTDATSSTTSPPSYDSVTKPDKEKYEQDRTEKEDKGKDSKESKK

On to `CC[P+](CC)(CC)CC(=O)Nc1c(C)csc1C(=O)OC.[Br-]` [Compound 1A, triethyl(2-((2-(methoxycarbonyl)-4-methylthiophen-3-yl)amino)-2-oxoethyl) Phosphonium Bromide], for which the inhibition – broadly, the percentage by which the read-out fell short of the control – at 10 µM on NaV1.7 [1] is 40 to 70%. The “PAMPA (10^−6 cm/s)” value in data set [2] is listed as “+ (“+” (<0.1 10^−6 cm/s))”.

On to `COC(=O)c1scc(C)c1NC(=O)C[P+]1(Cc2ccccc2)CCCCC1.[Br-]` [Compound 8A, 1-benzyl-1-(2-((2-(methoxycarbonyl)-4-methylthiophen-3-yl)amino)-2-oxoethyl)phosphinan-1-ium Bromide], for which, on NaV1.7 [1], the inhibition at 3 µM fell in the range of 70 to 90%. The “PAMPA (10^−6 cm/s)” value in data set [2] is recorded as “++ (“++” (0.1-2.0 10^−6 cm/s))”. `COC(=O)c1scc(C)c1NC(=O)C[P+]1(Cc2ccccc2)CCCCC1` [Compound 8]: the inhibition at 10 µM on NaV1.7 [3] was < 40%. Take `CCC(C(=O)Nc1c(C)csc1C(=O)OC)[P+]1(Cc2ccccc2)CCCCC1` (stereo not drawn) [Compound 10A, 1-benzyl-1-(1-((2-(methoxycarbonyl)-4-methylthiophen-3-yl)amino)-1-oxobutan-2-yl)phosphinan-1-ium Formate]: the inhibition at 3 µM on NaV1.7 [1] was > 90%. In addition, the “PAMPA (10^−6 cm/s)” value in data set [2] is “+++. (“+++” (2.0-10.010^−6 cm/s))”. As for `CCCC[P+](CCCC)(CCCC)CC(=O)Nc1c(C)csc1C(=O)OC.[Br-]` [Compound 17A, tributyl(2-((2-(methoxycarbonyl)-4-methylthiophen-3-yl)amino)-2-oxoethyl) Phosphonium Bromide], the inhibition at 10 µM at NaV1.7 [1] lay within 70 to 95%. Also, the “PAMPA (10^−6 cm/s)” value in data set [2] is “+ (“+” (<0.1 10^−6 cm/s))”.

As to `COC(=O)c1scc(C)c1NC(=O)C[P+](c1ccccc1)(c1ccccc1)c1ccccc1` [Compound 19A], at NaV1.7 [1], the inhibition at 10 µM is 70 to 95%. Consider `CC[P+](CC)(CC)CC(=O)Nc1c(C)csc1C(=O)OC(C)(C)C.[Br-]` [Compound 21A], for which, at NaV1.7 [1], the inhibition at 3 µM is 70 to 90%. The “PAMPA (10^−6 cm/s)” value in data set [2] is “+ (“+” (<0.1 10^−6 cm/s))”.
